Like-named read-outs stand apart in the source and are kept apart here.
Tests used:
K-562 = test: Inhibition of cells growth by colorimetric (SRB) assay, K-562; conditions: for GI50 / CC50: Homo sapiens, K562, 48 h
Procedure, shortened: (§1)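 Read-out is sulforhodamine B protein stain (OD 490 nm) after cold TCA fixation, following 48 h continuous exposure to samples spanning 10 to 10^−8 μg/ml.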

A-549 = test: Inhibition of cells growth by colorimetric (SRB) assay, A-549; conditions: for GI50 / CC50: Homo sapiens, A549, 48 h
Procedure, shortened: as §1

HT-29 = test: Inhibition of cells growth by colorimetric (SRB) assay, HT-29; conditions: for GI50 / CC50: Homo sapiens, HT-29, 48 h
Procedure, shortened: as §1

LoVo = test: Inhibition of cells growth by colorimetric (SRB) assay, LoVo; conditions: for GI50 / CC50: Homo sapiens, LoVo, 48 h
Procedure, shortened: as §1

LoVo-Dox = test: Inhibition of cells growth by colorimetric (SRB) assay, LoVo-Dox; conditions: for GI50 / CC50: Homo sapiens, 48 h
Procedure, shortened: as §1

DU-145 = test: Inhibition of cells growth by colorimetric (SRB) assay, DU-145; conditions: for GI50 / CC50: Homo sapiens, DU-145, 48 h
Procedure, shortened: as §1

LNCaP = test: Inhibition of cells growth by colorimetric (SRB) assay, LNCaP; conditions: for GI50 / CC50: Homo sapiens, LNCaP, 48 h
Procedure, shortened: as §1

SK-BR-3 = test: Inhibition of cells growth by colorimetric (SRB) assay, SK-BR-3; conditions: for GI50 / CC50: Homo sapiens, SK-BR-3, 48 h
Procedure, shortened: as §1

IGROV-1 = test: Inhibition of cells growth by colorimetric (SRB) assay, IGROV-1; conditions: for GI50 / CC50: Homo sapiens, IGROV-1, 48 h
Procedure, shortened: as §1

IGROV-ET = test: Inhibition of cells growth by colorimetric (SRB) assay, IGROV-ET; conditions: for GI50 / CC50: Homo sapiens, 48 h
Procedure, shortened: as §1

SK-OV-3 = test: Inhibition of cells growth by colorimetric (SRB) assay, SK-OV-3
Procedure, shortened: as §1

HeLa = test: Inhibition of cells growth by colorimetric (SRB) assay, HeLa; for HELA TGI: unit not given here
Procedure, shortened: as §1

HeLa-APL = test: Inhibition of cells growth by colorimetric (SRB) assay, HeLa-APL
Procedure, shortened: as §1

PANC-1 = test: Inhibition of cells growth by colorimetric (SRB) assay, PANC-1; conditions: for GI50 / CC50: Homo sapiens, PANC-1, 48 h
Procedure, shortened: as §1

Q: What does the source list for `CSc1nccc(-c2c3cccnc3n3c(N(C(C)=O)C(C)=O)nccc23)n1` [Compound 26]?
A: GI50 (K-562; read-out: GI50 K-562, SRB assay, 48 hours exposure): 2.8 µM; GI50 (K-562; read-out: K-562 GI50, SRB assay, 48 hours exposure): 6.29 µM; CC50 (K-562; read-out: K-562 LC50, SRB assay, 48 hours exposure): 18.1 µM; CC50 (K-562; read-out: LC50 K-562, SRB assay, 48 hours exposure): 23.4 µM; K-562 TGI (K-562; SRB assay, 48 hours exposure): 1.07E−05; TGI K-562 (K-562; SRB assay, 48 hours exposure): 8.10E−06; GI50 (A-549; read-out: A-549 GI50, SRB assay, 48 hours exposure): 6.88 µM; CC50 (A-549; read-out: A-549 LC50, SRB assay, 48 hours exposure): 21.5 µM; GI50 (A-549; read-out: GI50 A-549, SRB assay, 48 hours exposure): 0.706 µM; CC50 (A-549; read-out: LC50 A-549, SRB assay, 48 hours exposure): 16.5 µM; A-549 TGI (A-549; SRB assay, 48 hours exposure): 1.22E−05; TGI A-549 (A-549; SRB assay, 48 hours exposure): 2.93E−06; GI50 (HT-29; read-out: GI50 HT-29, SRB assay, 48 hours exposure): 0.935 µM; GI50 (HT-29; read-out: HT-29 GI50, SRB assay, 48 hours exposure): 1.05 µM; CC50 (HT-29; read-out: HT-29 LC50, SRB assay, 48 hours exposure): 24.6 µM; CC50 (HT-29; read-out: LC50 HT-29, SRB assay, 48 hours exposure): 25.5 µM; HT-29 TGI (HT-29; SRB assay, 48 hours exposure): 3.47E−06; TGI HT-29 (HT-29; SRB assay, 48 hours exposure): 3.36E−06; GI50 (LoVo; read-out: GI50 LOVO, SRB assay, 48 hours exposure): 0.415 µM; CC50 (LoVo; read-out: LC50 LOVO, SRB assay, 48 hours exposure): 13.4 µM; GI50 (LoVo; read-out: LOVO GI50, SRB assay, 48 hours exposure): 0.525 µM; CC50 (LoVo; read-out: LOVO LC50, SRB assay, 48 hours exposure): 2.03 µM; LOVO TGI (LoVo; SRB assay, 48 hours exposure): 1.03E−06; TGI LOVO (LoVo; SRB assay, 48 hours exposure): 1.87E−06; GI50 (LoVo-Dox; read-out: GI50 LOVO-DOX, SRB assay, 48 hours exposure): 1.79 µM; CC50 (LoVo-Dox; read-out: LC50 LOVO-DOX, SRB assay, 48 hours exposure): 25.5 µM; GI50 (LoVo-Dox; read-out: LOVO-DOX GI50, SRB assay, 48 hours exposure): 6.09 µM; CC50 (LoVo-Dox; read-out: LOVO-DOX LC50, SRB assay, 48 hours exposure): 19 µM; LOVO-DOX TGI (LoVo-Dox; SRB assay, 48 hours exposure): 1.08E−06; TGI LOVO-DOX (LoVo-Dox; SRB assay, 48 hours exposure): 1.10E−05; GI50 (DU-145; read-out: DU-145 GI50, SRB assay, 48 hours exposure): 4.48 µM; CC50 (DU-145; read-out: DU-145 LC50, SRB assay, 48 hours exposure): 18 µM; GI50 (DU-145; read-out: GI50 DU-145, SRB assay, 48 hours exposure): 0.581 µM; CC50 (DU-145; read-out: LC50 DU-145, SRB assay, 48 hours exposure): 14.9 µM; DU-145 TGI (DU-145; SRB assay, 48 hours exposure): 8.99E−06; TGI DU-145 (DU-145; SRB assay, 48 hours exposure): 2.10E−06; GI50 (LNCaP; read-out: GI50 LN-caP, SRB assay, 48 hours exposure): 0.703 µM; CC50 (LNCaP; read-out: LC50 LN-caP, SRB assay, 48 hours exposure): 2.28 µM; GI50 (LNCaP; read-out: LN-caP GI50, SRB assay, 48 hours exposure): 4.51 µM; CC50 (LNCaP; read-out: LN-caP LC50, SRB assay, 48 hours exposure): 17.5 µM; LN-caP TGI (LNCaP; SRB assay, 48 hours exposure): 8.89E−06; TGI LN-caP (LNCaP; SRB assay, 48 hours exposure): 1.27E−06; GI50 (SK-BR-3; read-out: GI50 SK-BR-3, SRB assay, 48 hours exposure): 0.278 µM; CC50 (SK-BR-3; read-out: LC50 SK-BR-3, SRB assay, 48 hours exposure): 2.53 µM; GI50 (SK-BR-3; read-out: SK-BR-3 GI50, SRB assay, 48 hours exposure): 4.18 µM; CC50 (SK-BR-3; read-out: SK-BR-3 LC50, SRB assay, 48 hours exposure): 20.7 µM; SK-BR-3 TGI (SK-BR-3; SRB assay, 48 hours exposure): 9.30E−06; TGI SK-BR-3 (SK-BR-3; SRB assay, 48 hours exposure): 8.38E−07; GI50 (IGROV-1; read-out: GI50 IGROV, SRB assay, 48 hours exposure): 0.22 µM; GI50 (IGROV-1; read-out: IGROV GI50, SRB assay, 48 hours exposure): 0.721 µM; CC50 (IGROV-1; read-out: IGROV LC50, SRB assay, 48 hours exposure): 9.25 µM; CC50 (IGROV-1; read-out: LC50 IGROV, SRB assay, 48 hours exposure): 9.17 µM; IGROV TGI (IGROV-1; SRB assay, 48 hours exposure): 1.58E−07; TGI IGROV (IGROV-1; SRB assay, 48 hours exposure): 2.73E−06; GI50 (IGROV-ET; read-out: GI50 IGROV-ET, SRB assay, 48 hours exposure): 1.7 µM; GI50 (IGROV-ET; read-out: IGROV-ET GI50, SRB assay, 48 hours exposure): 0.917 µM; CC50 (IGROV-ET; read-out: IGROV-ET LC50, SRB assay, 48 hours exposure): 11.4 µM; CC50 (IGROV-ET; read-out: LC50 IGROV-ET, SRB assay, 48 hours exposure): 25.5 µM; IGROV-ET TGI (IGROV-ET; SRB assay, 48 hours exposure): 1.83E−06; TGI IGROV-ET (IGROV-ET; SRB assay, 48 hours exposure): 7.50E−06; GI50 (SK-OV-3; Homo sapiens, SK-OV-3, 48 h, read-out: GI50 SKOV-3, SRB assay, 48 hours exposure): 0.28 µM; CC50 (SK-OV-3; Homo sapiens, SK-OV-3, 48 h, read-out: LC50 SKOV-3, SRB assay, 48 hours exposure): 9.35 µM; TGI SKOV-3 (SK-OV-3; SRB assay, 48 hours exposure): 1.13E−06; GI50 (HeLa; Homo sapiens, HeLa, 48 h, read-out: HELA GI50, SRB assay, 48 hours exposure): 0.00197 µM; HELA TGI (HeLa; SRB assay, 48 hours exposure): 6.91E−09; GI50 (HeLa-APL; Homo sapiens, 48 h, read-out: HELA-APL GI50, SRB assay, 48 hours exposure): 0.00177 µM; CC50 (HeLa-APL; Homo sapiens, 48 h, read-out: HELA-APL LC50, SRB assay, 48 hours exposure): 0.227 µM; HELA-APL TGI (HeLa-APL; SRB assay, 48 hours exposure): 8.64E−09; GI50 (PANC-1; read-out: GI50 PANC-1, SRB assay, 48 hours exposure): 0.933 µM; CC50 (PANC-1; read-out: LC50 PANC-1, SRB assay, 48 hours exposure): 21.3 µM; GI50 (PANC-1; read-out: PANC-1 GI50, SRB assay, 48 hours exposure): 4.38 µM; CC50 (PANC-1; read-out: PANC-1 LC50, SRB assay, 48 hours exposure): 17.6 µM; PANC-1 TGI (PANC-1; SRB assay, 48 hours exposure): 8.79E−06; TGI PANC-1 (PANC-1; SRB assay, 48 hours exposure): 4.05E−06

Source: patent US7772241B2, “Variolin derivatives and their use as antitumor agents” (Pharma Mar S.A., priority 2001, dated 2010)
